The target of assay [1] is T1, eEF2K (Homo sapiens, UniProt O00418).
T1 sequence (O00418 1-725): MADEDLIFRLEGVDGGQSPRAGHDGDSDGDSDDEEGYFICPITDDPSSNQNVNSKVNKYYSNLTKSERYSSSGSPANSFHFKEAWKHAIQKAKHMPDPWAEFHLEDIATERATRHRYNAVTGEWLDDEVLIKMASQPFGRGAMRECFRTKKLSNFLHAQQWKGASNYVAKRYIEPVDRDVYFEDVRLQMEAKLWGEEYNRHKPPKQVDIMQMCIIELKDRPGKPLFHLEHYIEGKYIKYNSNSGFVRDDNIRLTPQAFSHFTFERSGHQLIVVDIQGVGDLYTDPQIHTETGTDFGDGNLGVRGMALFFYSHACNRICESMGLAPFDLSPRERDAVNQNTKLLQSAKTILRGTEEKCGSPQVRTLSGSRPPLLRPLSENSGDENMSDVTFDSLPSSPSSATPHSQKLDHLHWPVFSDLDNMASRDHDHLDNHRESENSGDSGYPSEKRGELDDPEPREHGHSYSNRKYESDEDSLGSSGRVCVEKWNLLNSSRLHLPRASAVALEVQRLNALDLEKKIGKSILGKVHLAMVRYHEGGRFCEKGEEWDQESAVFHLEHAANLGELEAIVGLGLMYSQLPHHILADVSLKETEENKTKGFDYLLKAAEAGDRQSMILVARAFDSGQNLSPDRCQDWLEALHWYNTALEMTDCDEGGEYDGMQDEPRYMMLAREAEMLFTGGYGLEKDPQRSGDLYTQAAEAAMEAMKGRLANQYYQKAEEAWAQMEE
In words: Western blot analysis of eEF2K activity (p-EF2 Thr56) in MDA-MB-231 cells. The format is cell-based. Particulars: for eEF2K inhibition potential: western blot, 2.5 to 20 micromolar. As for the experimental part:
MeOH: distilled water by volume (%) (70:30) was used as the mobile phase for HPLC analysis for the inventive compound and the flow rate was set to 1 mL min^−1. Triple negative breast cancer (TNBC) cell lines (ER-, PR- and HER2-) MDA-MB-231 cells were purchased from the American Type Culture Collection (ATCC) (Manassas, VA, USA). MDA-MB-231 cells were cultured in Dulbecco's modified Eagle's medium (DMEM)/F12 supplemented with 10% FBS (Fetal Bovine Serum) and 100 U mL^−1 penicillin and streptomycin. Specific antibodies (p-EF2 (Thr56) (2331S), eEF2 (2332S), eEF2K (3692S) and GAPDH (5174S)) were purchased from Cell Signaling Technology (CST).
Western blot analysis was carried out according to previously reported studies to evaluate the eEF2K inhibition activity for the synthesized compounds. The synthesized compound was applied to MDA-MB-231 cells in the range of various concentrations from 2.5 to 20 micromolar for 2 h treatment. The expression levels of p-EF2 (Thr56) inhibition and eEF2K activity were determined by using related antibodies such as p-EF2 (Thr56), eEF2 and eEF2K. Glyceraldehyde 3-phosphate dehydrogenase (GAPDH) was used as a loading control.
To determine the effects of the synthesized compounds in inhibiting eEF2K activity in TNBC, MDA-MB-231 cells, we performed western blot analysis at concentrations ranging from 2.5 micromolar to 20 micromolar in a dose-dependent manner. eEF2K inhibition was detected by decreased phosphorylation levels of EF2 (p-EF2-Thr-56), a direct downstream substrate of the enzyme.

Another assay concerns cancer cells. The following applies: literature; cited from earlier work.
Assay [2] addresses T1, eEF2K. The following applies: literature; cited from earlier work.

Regarding `CCc1cccc2c3c([nH]c12)C(CC)(CC(=O)O)OCC3` (racemic) [Etodolac, (R,S)-2-[1,8-diethyl-1,3,4-tetrahydropyrano [3,4-b]indol-1-yl]acetic acid], on eEF2K [1], the eEF2K inhibition potential entry is reported as “did not show any inhibition potential”.
With `CCn1c(=O)c2cc(C(N)=O)c(N)nc2n(C2CC2)c1=O` [A484954], the “dose showing inhibition effect in cancer cells” value in the assay on cancer cells is 75 µM.
With `CCc1cccc2c3c([nH]c12)C(CC)(CC(=O)N1CCCCC1)OCC3` (centres unmarked) [Inventive compound, 2-(1,8-diethyl-1,3,4,9-tetrahydropyrano [3,4-b]indol-1-yl)-1-(piperidin-1-yl) ethan-1-one], the “eEF2K inhibition (reduced levels of p-EF2)” value at eEF2K [1] (2.5 micromolar, compared to etodolac (EC)) is “marked inhibition”. In addition, the “inhibition of phospho-eEF2 (Thr56)” value at eEF2K [1] (20 micromolar, 2 hours treatment) is given as “highest inhibition”. The eEF2K inhibition potential result on eEF2K [1] is on record as “high inhibition potential”.
Regarding `CCCCCCCCCCCCCCCCn1cc[n+](Cc2ccccc2)c1C.[I-]` [NH125], the “eEF2K inhibition (reported)” value on eEF2K [2] is on record as “does not inhibit EF2K”.
As for `Cc1cc(C=C2C(=O)C=CC2=O)cc(C)c1O` [TX1918], on eEF2K [2], the “concentration reported to inhibit eEF2K” value is 10 µM and the “eEF2K inhibition (reported)” value is “did not show significant eEF2K inhibition”.

The record behind these values is patent publication US20260015359A1, “2-(1,8-DIETHYL-1,3,4,9-TETRAHYDROPYRANO[3,4-B]INDOL-1-YL)-1-(PIPERIDIN-1-YL)ETHAN-1-ONE ETODOLAC DERIVATIVE AS EUKARYOTIC ELONGATION FACTOR 2 KINASE (EEF2K) INHIBITOR FOR TARGETED CANCER THERAPY” (BAHCESEHIR UNIVERSITESI, priority 2023, published 2026).
